Results: paper PMC11891579, “Fluorescent PyrAte-(S)-citalopram conjugates enable imaging of the serotonin transporter in living tissue” (Chemical Science, 2025)
“Also recorded” adds a separate entry of the source.

Legend:
[1] = target: T1, mCherry-SERT-expressing HEK293 cells (Homo sapiens, UniProt P31645); assay: confocal microscopy of membrane staining; type: cell-based; settings: for membrane staining of mCherry-SERT HEK293 cells: 20 nM
T1 construct: expressed in transfected cells
Description: Prior to imaging, cell culture medium was replaced with pre-warmed KHB. HEK293 cells expressing mCherry-SERT were imaged using a Nikon A1R laser scanning confocal microscope equipped with a GaAsP detector, using a 60× oil-immersion objective. PyrAtes dissolved in DMSO were diluted in KHB (0.1% v/v) to make solutions with the desired final concentration (20 nM, 100 nM), which were added to each well containing the cells. To test specific binding, cells were pre-incubated with 10 – 30 µM paroxetine for 10 minutes. PyrAtes were excited using a 405 nm laser, and its fluorescent signals collected using 525/50 nm emission filters; mCherry was excited using a 561 nm laser, and fluorescence was collected using 595/50 nm emission filters. Images were captured prior to and at specific time points after addition of the PyrAte compounds using NIS-Elements software. […]
Cells were voltage-clamped (−60 mV) and continuously superfused with a physiological external solution containing 140mM NaCl, 2.5 mM CaCl2,2mM MgCl2, 20mM glucose and 10mM HEPES, pH= 7.4. Micropipettes were made from borosilicate glass capillaries with a resistance ranging from 2.5 – 6 MΩ using a P-97 micropipette puller (Sutter Instrument), which were then filled with an internal solution containing 133mM K-gluconate, 6mM NaCl, 1mM CaCl2, 0.7 mM MgCl2, 10mM HEPES, 10mM EGTA, pH= 7.2. For the measurements we used an amplifier […] and pClamp 11.2 software (MDS Analytical Technologies, Sunnyvale, CA, USA). The compounds were diluted the day of the experiments in external solutions and applied using a DAD-12 superfusion system with a 8-tube perfusion manifold (ALA Scientific Instruments, Farmingdale, NY, USA), guaranteeing rapid solution exchange. Current traces were filtered at 1 kHz and digitized at 10 kHz using a Digidata 1550 (MDS Analytical Technologies). […]

YhDAT = target: T2, YhDAT (Homo sapiens, UniProt Q01959); assay: radioligand uptake inhibition assay ([3H]DA); type: cell-based; settings: for IC50: HEK293 stably expressing YhDAT, 100 nM [3H]DA, mean and SD, N = 3-6, read-out: IC50, uptake inhibition at DAT (YhDAT); for Hill coefficient nH at DAT: uptake inhibition curve
T2 construct: expressed in transfected cells
T2 sequence (Q01959 whole entry): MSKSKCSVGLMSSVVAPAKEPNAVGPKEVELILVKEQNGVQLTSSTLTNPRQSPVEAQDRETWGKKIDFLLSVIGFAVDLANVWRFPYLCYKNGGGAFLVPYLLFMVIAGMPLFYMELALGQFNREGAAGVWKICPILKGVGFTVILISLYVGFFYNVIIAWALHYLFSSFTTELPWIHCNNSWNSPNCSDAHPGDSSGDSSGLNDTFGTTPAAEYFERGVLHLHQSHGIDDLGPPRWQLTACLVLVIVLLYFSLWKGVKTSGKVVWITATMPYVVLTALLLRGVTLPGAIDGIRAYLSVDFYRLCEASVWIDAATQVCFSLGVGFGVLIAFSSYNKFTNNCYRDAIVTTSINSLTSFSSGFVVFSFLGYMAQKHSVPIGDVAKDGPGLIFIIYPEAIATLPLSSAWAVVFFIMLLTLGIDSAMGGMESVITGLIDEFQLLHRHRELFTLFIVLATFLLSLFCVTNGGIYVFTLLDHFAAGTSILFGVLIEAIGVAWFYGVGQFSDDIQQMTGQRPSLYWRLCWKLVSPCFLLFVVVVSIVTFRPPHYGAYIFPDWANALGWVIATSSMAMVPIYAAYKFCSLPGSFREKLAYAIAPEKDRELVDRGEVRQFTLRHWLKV
Description: 1. Biological characterization
1.1. Experimental methods
Buffer and solution compositions (in mM) are as follows:
Krebs-HEPES buffer (KHB): 120 NaCl, 3 KCl, 2 CaCl2, 2 MgCl2, 20 glucose, 10 HEPES NaOH, pH = 7.3 – 7.4. […]
10 mM glucose, 1.25 mM NaH2PO4, pH = 7.4 (oxygenated with 95% O2, 5% CO2).
Human embryonic kidney 293 cells (HEK293) stably expressing the mCherry-tagged, YFP-tagged, and GFP-tagged human isoforms of SERT (mCherry-SERT, YhSERT, GhSERT), DAT (YhDAT), NET (hNET), and OCT3 (YhOCT3) were cultured in Dulbecco's modified Eagle's medium (DMEM) with high glucose (4.5 g/L) and l-glutamine (584 mg/L), supplemented with 10% fetal calf serum (FCS), 100 units/mL penicillin and 100 µg/mL streptomycin. The cells were cultured in a humidified atmosphere (37 °C, 5% CO2). Geneticin (50 µg/mL), Blasticidin (6 µg/mL), and Zeocin® (150 µg/mL) were added to maintain the selection pressure for the stable cell lines. Cells were typically seeded 24 hours prior to the experiments.
For uptake inhibition experiments, cells were seeded at 3.6 x 10^4 cells/0.2 mL into 96-well plates coated […]
with poly-d-lysine (PDL). […]
For uptake inhibition experiments, the cell medium was aspirated and the cells were washed once with 0.2 mL/well KHB at room temperature. The cells were pre-incubated with increasing concentrations of the substance of interest, diluted in KHB (0.05 mL/well). The pre-incubation solution was replaced with 0.05 mL/well KHB solution still containing the substance of interest and additionally the tritiated substrate (100 nM [3H]DA for YhDAT; 100 nM [3H]5HT for YhSERT; 20 nM and 50 nM [3H]MPP+ for hNET and YhOCT3), after 6 minutes (YhSERT), 5 minutes (YhDAT, hNET), or 10 minutes (YhOCT3). Substrate uptake was stopped after one minute (for [3H]DA and [3H]5HT), three minutes, or […]
The KHB was aspirated immediately. […] Non-specific uptake was determined in the presence of 30 µM paroxetine (for YhSERT), 50 µM GBR12909 (for YhDAT and hNET), or 100 µM decynium-22 (for YhOCT3). […]
[3H]-imipramine, and increasing concentrations of test compound, for 60 min at 20 – 22 °C. […] The amount of radioactivity in the filters was measured using a Tri-Carb 2800TR liquid scintillation analyzer (PerkinElmer). The Ki was calculated from the measured IC50 using the Cheng-Prusoff equation.
Prior to imaging, cell culture medium was replaced with pre-warmed KHB. […] PyrAtes were excited using a 405 nm laser, and its fluorescent signals collected using 525/50 nm emission filters; mCherry was excited using a 561 nm laser, and fluorescence was collected using 595/50 nm emission filters. […]
5HT-mediated currents were measured at room temperature (20-25°C) using whole-cell patch clamp in HEK293 cells stably expressing SERT. […]

T1 sequence (P31645 whole entry): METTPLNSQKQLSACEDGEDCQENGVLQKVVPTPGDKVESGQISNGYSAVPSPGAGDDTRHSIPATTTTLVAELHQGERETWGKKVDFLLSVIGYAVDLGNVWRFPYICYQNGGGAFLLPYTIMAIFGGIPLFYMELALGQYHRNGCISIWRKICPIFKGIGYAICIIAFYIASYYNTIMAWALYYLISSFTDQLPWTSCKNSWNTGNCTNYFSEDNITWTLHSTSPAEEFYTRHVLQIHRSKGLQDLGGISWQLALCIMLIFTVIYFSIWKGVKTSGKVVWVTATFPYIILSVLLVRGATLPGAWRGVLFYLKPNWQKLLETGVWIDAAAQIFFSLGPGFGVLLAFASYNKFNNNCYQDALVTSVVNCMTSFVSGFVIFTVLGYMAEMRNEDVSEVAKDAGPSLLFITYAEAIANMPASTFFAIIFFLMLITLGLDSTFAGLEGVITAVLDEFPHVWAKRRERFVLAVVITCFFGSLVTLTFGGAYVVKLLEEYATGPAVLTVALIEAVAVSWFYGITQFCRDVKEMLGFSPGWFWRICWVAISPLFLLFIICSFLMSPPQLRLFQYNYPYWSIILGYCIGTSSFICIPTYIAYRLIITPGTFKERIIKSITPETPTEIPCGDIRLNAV

Compound	membrane staining of mCherry-SERT HEK293 cells ([1]; 60 min incubation, absent with paroxetine)	IC50 (YhDAT)	Hill coefficient nH at DAT (YhDAT)	membrane staining of mCherry-SERT HEK293 cells ([1]; 30 min incubation, blocked by 30 μM paroxetine)	staining of mCherry-SERT HEK293 cells ([1]; 100 nM)
CCN(CC)c1ccc(-c2cc[n+]3c(-c4ccccc4)c(N4CCCC4)n(CCCC(=O)NCc4ccc5c(c4)CO[C@@]5(CCCN(C)C)c4ccc(F)cc4)c3c2)cc1 [PYR-C3-CIT, PyrAte-C3-(S)-citalopram]	enhanced co-localization of PyrAte and mCherrySERT signals and no internalization; also recorded: SERT-specific membrane staining	3570 nM	−1.3		
CCN(CC)c1ccc(-c2cc[n+]3c(-c4ccccc4)c(N4CCCC4)n(CCCCCCC(=O)NCc4ccc5c(c4)CO[C@@]5(CCCN(C)C)c4ccc(F)cc4)c3c2)cc1 [PYR-C6-CIT, PyrAte-C6-(S)-citalopram]		2050 nM	−1.5	binds specifically to membrane-expressed SERT; also recorded: SERT-specific membrane staining	mitochondrial staining
